Test results from PubChem BioAssay AID248 (DTP/NCI, 2004).
“And” between values parts separate entries of the source, which are not always exact repeats. Equal entries are not always repeated. Inconclusive results and toxic doses are left out. No stated cut-off is given here; in the data, active means T/C of 150% or more; inactive means T/C below 125%.

Tested on: L1210 leukemia ip in BDF1 mice, survival T/C
Assay: NCI In Vivo Anticancer Drug Screen. Data for tumor model L1210 Leukemia (intraperitoneal) in B6D2F1 (BDF1) mice
Conditions: endpoint: mean survival time, higher = longer survival
How it was run: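 Mice bearing the transplanted tumor received compound or vehicle. Survival of the treated group was divided by that of the vehicle-treated control group to give the ratio.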

[1] = dose: 50.0 mg/kg/injection, schedule: Q01DX001 (ip), vehicle: carboxymethylcellulose (CMC)
[2] = dose: 100.0 mg/kg/injection, schedule: Q01DX001 (ip), vehicle: saline
[3] = dose: 50.0 mg/kg/injection, schedule: Q04DX003 (ip), vehicle: saline with Tween-80
[4] = dose: 100.0 mg/kg/injection, schedule: Q04DX003 (ip), vehicle: saline with Tween-80
[5] = dose: 100.0 mg/kg/injection, schedule: Q04DX002 (ip), vehicle: saline with Tween-80
[6] = dose: 200.0 mg/kg/injection, schedule: Q04DX002 (ip), vehicle: saline with Tween-80
[7] = dose: 400.0 mg/kg/injection, schedule: Q04DX002 (ip), vehicle: saline with Tween-80
[8] = dose: 400.0 mg/kg/injection, schedule: Q01DX001 (ip), vehicle: carboxymethylcellulose (CMC)
[9] = dose: 25.0 mg/kg/injection, schedule: Q01DX009 (ip), vehicle: Klucel (hydroxypropylcellulose) (HPC)
[10] = dose: 100.0 mg/kg/injection, schedule: Q01DX001 (ip), vehicle: carboxymethylcellulose (CMC)
[11] = dose: 200.0 mg/kg/injection, schedule: Q01DX001 (ip), vehicle: carboxymethylcellulose (CMC)
[12] = dose: 200.0 mg/kg/injection, schedule: Q04DX003 (ip), vehicle: saline with Tween-80
[13] = dose: 400.0 mg/kg/injection, schedule: Q04DX003 (ip), vehicle: saline with Tween-80
[14] = dose: 100.0 mg/kg/injection, schedule: Q01DX009 (ip), vehicle: saline with Tween-80
[15] = dose: 200.0 mg/kg/injection, schedule: Q01DX009 (ip), vehicle: saline with Tween-80
[16] = dose: 400.0 mg/kg/injection, schedule: Q01DX009 (ip), vehicle: saline with Tween-80
[17] = dose: 5.0 mg/kg/injection, schedule: Q01DX001 (ip), vehicle: saline
[18] = dose: 10.0 mg/kg/injection, schedule: Q01DX001 (ip), vehicle: saline
[19] = dose: 20.0 mg/kg/injection, schedule: Q01DX001 (ip), vehicle: saline
[20] = dose: 40.0 mg/kg/injection, schedule: Q01DX001 (ip), vehicle: saline
[21] = dose: 100.0 mg/kg/injection, schedule: Q04DX003 (ip), vehicle: Klucel (hydroxypropylcellulose) (HPC)
[22] = dose: 200.0 mg/kg/injection, schedule: Q04DX003 (ip), vehicle: Klucel (hydroxypropylcellulose) (HPC)
[23] = dose: 100.0 mg/kg/injection, schedule: Q01DX001 (ip), vehicle: Klucel (hydroxypropylcellulose) (HPC)
[24] = dose: 200.0 mg/kg/injection, schedule: Q01DX001 (ip), vehicle: Klucel (hydroxypropylcellulose) (HPC)

Measured: T/C

COc1ccc(Nc2ccnc3cc(Cl)ccc23)cc1CN(CCCl)CCCl
inactive: dose: 0.78 mg/kg/injection, schedule: Q01DX009 (ip), vehicle: saline 115 % of control | dose: 1.1 mg/kg/injection, schedule: Q01DX Z (ip), vehicle: methylcellulose (MC) 110 % of control | dose: 1.25 mg/kg/injection, schedule: Q01DX009 (ip), vehicle: Klucel (hydroxypropylcellulose) (HPC) 110 % of control | dose: 1.56 mg/kg/injection, schedule: Q01DX009 (ip), vehicle: saline 109 % of control | dose: 1.56 mg/kg/injection, schedule: Q04DX003 (ip), vehicle: saline 108 % of control | dose: 1.6 mg/kg/injection, schedule: Q01DX Z (ip), vehicle: methylcellulose (MC) 106 % of control and 118 % of control | dose: 2.4 mg/kg/injection, schedule: Q01DX Z (ip), vehicle: methylcellulose (MC) 117 % of control and 124 % of control | dose: 2.5 mg/kg/injection, schedule: Q01DX001 (ip), vehicle: Klucel (hydroxypropylcellulose) (HPC) 108 % of control | dose: 2.5 mg/kg/injection, schedule: Q01DX009 (ip), vehicle: Klucel (hydroxypropylcellulose) (HPC) 112 % of control | dose: 2.5 mg/kg/injection, schedule: Q04DX003 (ip), vehicle: Klucel (hydroxypropylcellulose) (HPC) 105 % of control | dose: 3.13 mg/kg/injection, schedule: Q01DX009 (ip), vehicle: saline 86 % of control | dose: 3.13 mg/kg/injection, schedule: Q04DX003 (ip), vehicle: saline 106 % of control | dose: 3.6 mg/kg/injection, schedule: Q01DX Z (ip), vehicle: methylcellulose (MC) 110 % of control and 112 % of control | dose: 5.0 mg/kg/injection, schedule: Q01DX001 (ip), vehicle: Klucel (hydroxypropylcellulose) (HPC) 107 % of control | dose: 5.0 mg/kg/injection, schedule: Q04DX003 (ip), vehicle: Klucel (hydroxypropylcellulose) (HPC) 106 % of control | dose: 10.0 mg/kg/injection, schedule: Q01DX001 (ip), vehicle: Klucel (hydroxypropylcellulose) (HPC) 103 % of control | dose: 10.0 mg/kg/injection, schedule: Q04DX003 (ip), vehicle: Klucel (hydroxypropylcellulose) (HPC) 105 % of control | [1] 106 % of control

CNC(=O)NO
inactive: dose: 50.0 mg/kg/injection, schedule: Q01DX Z (ip), vehicle: water 112 % of control | dose: 200.0 mg/kg/injection, schedule: Q01DX Z (ip), vehicle: water 97 % of control | dose: 400.0 mg/kg/injection, schedule: Q01DX Z (ip), vehicle: water 115 % of control

COc1cc(CNCc2cc(OC)c(OC)c(OC)c2)cc(OC)c1OC
inactive: dose: 50.0 mg/kg/injection, schedule: Q01DX001 (ip), vehicle: saline 102 % of control | [2] 102 % of control

COC1=C(N2CC2)C(=O)c2ccccc2C1=O
inactive: dose: 25.0 mg/kg/injection, schedule: Q04DX003 (ip), vehicle: saline with Tween-80 109 % of control | [3] 101 % of control | [4] 101 % of control and 108 % of control

IC1CCC2OC1CCC2I (stereo not given)
inactive: [5] 94 % of control | [6] 94 % of control | [7] 109 % of control

CCOc1ccc(NC2=C(OC)C(=O)C(Nc3ccc(OCC)cc3)=C(OC)C2=O)cc1
inactive: [1] 99 % of control | [8] 93 % of control

COc1ccc(C(=O)N/N=C/c2c(Cl)cccc2Cl)cc1
inactive: [9] 92 % of control | dose: 50.0 mg/kg/injection, schedule: Q01DX009 (ip), vehicle: Klucel (hydroxypropylcellulose) (HPC) 90 % of control | dose: 100.0 mg/kg/injection, schedule: Q01DX009 (ip), vehicle: Klucel (hydroxypropylcellulose) (HPC) 93 % of control and 104 % of control

Nc1nc(-c2ccccc2)c(CCCOc2ccc(NC(=O)CBr)cc2)c(=O)[nH]1
inactive: [1] 91 % of control | [10] 96 % of control | [11] 86 % of control | [8] 86 % of control

O=C1CCC2=C(CCCCCC2)N1c1ccccc1
inactive: [4] 110 % of control | [12] 110 % of control | [13] 98 % of control

NC1CCC(O)CC1 (stereo not given)
inactive: [2] 110 % of control | dose: 200.0 mg/kg/injection, schedule: Q01DX001 (ip), vehicle: saline 97 % of control | dose: 400.0 mg/kg/injection, schedule: Q01DX001 (ip), vehicle: saline 97 % of control

Cc1nc2c(c(=O)[nH]1)OCN(Cc1ccccc1)C2
inactive: [1] 96 % of control | [10] 98 % of control | [11] 98 % of control | [8] 98 % of control

COC(=O)c1ccccc1NC(=O)COc1cc(Cl)c(Cl)cc1Cl
inactive: dose: 100.0 mg/kg/injection, schedule: Q04DX002 (ip), vehicle: Klucel (hydroxypropylcellulose) (HPC) 96 % of control | dose: 200.0 mg/kg/injection, schedule: Q04DX002 (ip), vehicle: Klucel (hydroxypropylcellulose) (HPC) 89 % of control | dose: 400.0 mg/kg/injection, schedule: Q04DX002 (ip), vehicle: Klucel (hydroxypropylcellulose) (HPC) 86 % of control

CCCCCCc1ccccc1
inactive: [14] 98 % of control | [4] 105 % of control | [15] 98 % of control | [12] 94 % of control | [16] 88 % of control | [13] 95 % of control

Brc1ccc(Nc2c3ccccc3nc3ccccc23)cc1
inactive: [4] 97 % of control | [12] 103 % of control

CSc1cc(=O)n2c3ccccc3c3ccnc1c32
inactive: [17] 98 % of control | [18] 98 % of control | [19] 100 % of control | [20] 98 % of control | dose: 80.0 mg/kg/injection, schedule: Q01DX001 (ip), vehicle: saline 100 % of control | [2] 120 % of control

O=C1c2ccccc2CCC12OC2c1ccc(F)cc1 (stereo not given)
inactive: [21] 97 % of control | [22] 97 % of control | dose: 400.0 mg/kg/injection, schedule: Q04DX003 (ip), vehicle: Klucel (hydroxypropylcellulose) (HPC) 103 % of control

Cc1cc(OC(=O)c2ccccc2)cc(C)c1OC(=O)c1ccccc1
inactive: [5] 96 % of control | [6] 100 % of control | [7] 96 % of control

Cn1cc(C2=CC(=O)C=CC2=O)c2ccccc21
inactive: [17] 102 % of control | [18] 111 % of control | [19] 104 % of control | [20] 98 % of control

CCOC(=O)C(C)(C(=O)OCC)c1cc(OC)c(C)cc1Br
inactive: [3] 100 % of control | [4] 103 % of control | [12] 100 % of control | [13] 97 % of control

O=C(O)CC(NC(=O)OCc1ccccc1)C(=O)OCc1ccccc1 (stereo not given)
inactive: [14] 107 % of control | [4] 104 % of control | [15] 93 % of control | [12] 107 % of control | [16] 91 % of control | [13] 96 % of control

COC(=O)C(=CC(Cl)(Cl)Cl)C(=O)OC
inactive: dose: 6.2 mg/kg/injection, schedule: Q01DX009 (ip), vehicle: Klucel (hydroxypropylcellulose) (HPC) 102 % of control | dose: 12.5 mg/kg/injection, schedule: Q01DX009 (ip), vehicle: Klucel (hydroxypropylcellulose) (HPC) 96 % of control | [9] 96 % of control | dose: 25.0 mg/kg/injection, schedule: Q04DX003 (ip), vehicle: Klucel (hydroxypropylcellulose) (HPC) 102 % of control | dose: 50.0 mg/kg/injection, schedule: Q04DX003 (ip), vehicle: Klucel (hydroxypropylcellulose) (HPC) 97 % of control | [23] 101 % of control | [21] 97 % of control | [24] 105 % of control | [22] 102 % of control

CN(C)CCN1C(=O)c2ccc3c4c(ccc(c24)C1=O)C(=O)N(CCN(C)C)C3=O
inactive: dose: 50.0 mg/kg/injection, schedule: Q01DX001 (ip), vehicle: Klucel (hydroxypropylcellulose) (HPC) 96 % of control | [23] 94 % of control | [24] 89 % of control

CN(c1ccccc1)S(=O)(=O)c1ccc(N)cc1
inactive: [23] 96 % of control | [24] 104 % of control | dose: 400.0 mg/kg/injection, schedule: Q01DX001 (ip), vehicle: Klucel (hydroxypropylcellulose) (HPC) 102 % of control
